# Results published in patent publication US20240374487A1, “ANTI-AGING AGENT, COSMETIC PRODUCT, WET TOWEL, AND HYGIENE PRODUCT” (VB JAPAN TECHNOLOGY CO., LTD., priority 2021, published 2024).
# Assays:
# [1] = system: AGE receptor (FEEL-1, FEEL-2, CD-36, AGE-R1, AGE-R2, AGE-R3 and RAGE); assay: mRNA levels of AGE receptors by qRT-PCR in normal human dermal fibroblasts; assay type: cell-based; conditions: VB alone, no AGE, 37° C. 4 hours, compared with untreated group
# Description: (§1) Normal human dermal fibroblasts (NHDF), juvenile foreskin (C-12300, PromoCell) were cultured in a dedicated medium, Fibroblast Growth Medium (C-23010, PromoCell) at 37° C. in a 5% CO2 incubator.
# (§2) First, as a co-existence group of VB and AGE, normal human dermal fibroblasts were treated with AGE (100 μg/mL), and the above VB2 (concentration after dilution: 115 μg/ml) and VB3 (concentration after dilution: 1000 μg/mL) diluted to an accurate 1/1000 amount were each added and retained at 37° C. for 4 hours. […]
# (§3) Then, total RNA was extracted from the cells using Trizol reagent (Ambion), and mRNA levels of AGE receptor (FEEL-1, FEEL-2, CD-36, AGE-R1, AGE-R2, AGE-R3 and RAGE) and heat shock protein (Hsp104, gp96, Hsp90, Hsp70, Hsp60, and Hsp32) were measured by qRT-PCR (one-step quantitative reverse transcription-polymerase chain reaction) method. […]
# (§4) The qRT-PCR method used for the measurement of AGE receptor, heat shock protein, aquaporin, hyaluronic acid, and Elastin will be described. In the qRT-PCR method, 500 ng of the obtained total RNA was used as a template for PCR, and one step RT-PCR capable of performing CDNA synthesis by a reverse transcription reaction (Reverse Transcriptase; RT reaction) and quantitative PCR in one test tube was performed using Luna Universal One-Step qRT-PCR Kit. […]
# FEEL-1 = FEEL-1 mRNA level by qRT-PCR in AGE-treated fibroblasts; assay type: cell-based, human; conditions: co-existence with AGE 100 μg/mL, 4 hours, compared with AGE single stimulation group
# Description: as §1, §2, §3, §4
# FEEL-2 = FEEL-2 mRNA level by qRT-PCR in AGE-treated fibroblasts; assay type: cell-based, human; conditions: co-existence with AGE 100 μg/mL, 4 hours, compared with AGE single stimulation group
# Description: as §1, §2, §3, §4
# RAGE = RAGE mRNA level by qRT-PCR in AGE-treated fibroblasts; assay type: cell-based, human; conditions: co-existence with AGE 100 μg/mL, 4 hours, compared with AGE single stimulation group
# Description: as §1, §2, §3, §4
# [2] = system: heat shock protein (Hsp104, gp96, Hsp90, Hsp70, Hsp60, and Hsp32); assay: mRNA levels of heat shock proteins by qRT-PCR in fibroblasts; assay type: cell-based, human; conditions: 4 hours
# Description: as §1
# First, as a co-existence group of VB and AGE, normal human dermal fibroblasts were treated with AGE (100 μg/mL), and the above VB2 (concentration after dilution: 115 μg/ml) and VB3 (concentration after dilution: 1000 μg/mL) diluted to an accurate 1/1000 amount were each added and retained at 37° C. for 4 hours.
# In addition, as the VB single stimulation group, normal human dermal fibroblasts were not treated with AGE, and the above VB2 and VB3 diluted to an accurate 1/1000 amount were each added and held at 37° C. for 4 hours. Furthermore, as the AGE single stimulation group, normal human dermal fibroblasts were treated with AGE and kept at 37° C. for 4 hours without addition of VB2 or VB3. In addition, as an untreated group, normal human dermal fibroblasts were not treated with AGE, and were kept at 37° C. for 4 hours without adding VB2 or VB3.
# Then, total RNA was extracted from the cells using Trizol reagent (Ambion), and mRNA levels of AGE receptor (FEEL-1, FEEL-2, CD-36, AGE-R1, AGE-R2, AGE-R3 and RAGE) and heat shock protein (Hsp104, gp96, Hsp90, Hsp70, Hsp60, and Hsp32) were measured by qRT-PCR (one-step quantitative reverse transcription-polymerase chain reaction) method.
# The measurement results for AGE receptor are shown in FIG. 1, and the measurement results for heat shock protein are shown in FIG. 2. In FIG. 1 and FIG. 2, for the co-existence group of AGE and VB, samples to which VB2 and VB3 were added are indicated as VB2(+)AGE and VB3(+)AGE, respectively, and these values were shown in comparison with the AGE single stimulation group. In addition, for the VB single stimulation group, samples to which VB2 and VB3 were added were indicated as VB2 alone and VB3 alone, respectively, and these values were shown in comparison with the untreated group.
# (§5) The qRT-PCR method used for the measurement of AGE receptor, heat shock protein, aquaporin, hyaluronic acid, and Elastin will be described. In the qRT-PCR method, 500 ng of the obtained total RNA was used as a template for PCR, and one step RT-PCR capable of performing CDNA synthesis by a reverse transcription reaction (Reverse Transcriptase; RT reaction) and quantitative PCR in one test tube was performed using Luna Universal One-Step qRT-PCR Kit.
# As a PCR device, Thermal Cycler Dice Real Time System II manufactured by Takara was used. […]
# (§6) The reaction was performed under the conditions of 1 cycle of 30 seconds at 95° C., and further cycles of 5 seconds at 95° C. and 30 seconds at 60° C. for 50 cycles. A variation in mRNA expression by 4 times or more (2 cycles as PCR reaction) was determined as a significant difference.
# intracellular ROS [3] = assay: Intracellular ROS against AGE (DCF-DA fluorescence); assay type: cell-based, human; conditions: AGE 100 μg/mL, 4 hours, FIG. 3
# Description: as §1
# Normal human dermal fibroblasts were treated with AGE (100 μg/mL) and maintained at 37° C. for 4 hours with the addition of VB2 and VB3, respectively. Here, VB2 and VB3 were added at concentrations of 1 μg/mL, 10 μg/mL, 100 μg/mL, and 300 μg/mL, respectively. In FIGS. 3 and 4, which are graphs showing the results, those to which VB2was added were denoted as “VB2-AGE”, and those to which VB3 was added were denoted as “VB3-AGE”.
# As Control, measurement was also performed on normal human dermal fibroblasts which were not treated with AGE and were held at 37° C. for 4 hours without addition of VB2 or VB3, and as an AGE single stimulation group, measurement was also performed on normal human dermal fibroblasts which were treated with AGE (100 μg/mL) and were held at 37° C. for 4 hours without addition of VB2 or VB3 (in FIGS. 3 and 4, it is denoted as “AGE”.).
# Measurement of intracellular ROS was performed using fluorescence using dichlorofluorescin diacetate (DCF-DA; Invitrogen, Carlsbad, CA, USA). […] The intracellular ROS level was measured at an excitation wavelength of 525 nm using fluorescence intensity using the micro plate reader (SYNERGY/HT, BioTek, Japan).
# [4] = system: normal human dermal fibroblasts; assay: Cell viability under hydrogen peroxide oxidative stress (Cell counting-8 kit); assay type: cell-based; conditions: for cell viability, trend: 1-300 μg/mL
# Description: as §1
# (§7) Normal human dermal fibroblasts were cultured for 2 hours in a culture solution to which 0.2 mM hydrogen peroxide was added, then washed off with PBS, and replaced with a normal medium to continue the cultivation. VB2 and VB3 were each added at any timing before or after hydrogen peroxide was added, and co-cultured for 4 hours. Thereafter, the cells or the culture solution were recovered.
# In FIG. 5 which is a graph showing the results, a sample obtained by adding VB2 or VB3 after adding hydrogen peroxide was denoted as “H2O2-VB2” and “H2O2-VB3”, respectively, and a sample obtained by adding hydrogen peroxide after adding VB2 or VB3 was denoted as “VB2-H2O2” and “VB3-H2O2”, respectively.
# Here, VB2 and VB3 were added at concentrations of 1 μg/mL, 10 μg/mL, 100 μg/mL, and 300 μg/mL, respectively.
# The normal human dermal fibroblasts to which neither hydrogen peroxide nor VB2 nor VB3 was added were treated in the same manner as described above, and measured as Control. In addition, a sample to which VB2 or VB3 was not added (in FIG. 5, it is denoted as “H2O2”) was also treated in the same manner as described above, and measurement was performed.
# The number of surviving cells in normal human dermal fibroblasts was measured using Cell counting −8 kit (DOJINDO: , Japan).
# intracellular ROS [5] = assay: Intracellular ROS production against hydrogen peroxide (DCF-DA); assay type: cell-based, human
# Description: Measurement of intracellular ROS was performed using fluorescence using dichlorofluorescin diacetate (DCF-DA; Invitrogen, Carlsbad, CA, USA). Specifically, cells were washed with PBS, and then incubated with 10 μM DCF-DA at 37° C. for 20 minutes. The intracellular ROS level was measured at an excitation wavelength of 525 nm using fluorescence intensity using the micro plate reader (SYNERGY/HT, BioTek, Japan).
# as §7
# According to the procedure described in “Measurement of Cell Viability” above, normal human dermal fibroblasts were treated and cultured (co-culture), and cells or the culture solution was recovered. The concentrations of VB2 and VB3 used and the notation of the samples in FIGS. 6 and 7, which are graphs showing the results, are also similar to the above “Measurement of Cell Viability”.
# The measurement of intracellular ROS and the measurement of superoxide (SOD) were performed by the same methods as the methods described in “Measurement of Intracellular Reactive Oxygen (ROS) Production and Superoxide (SOD) against AGE” above, respectively.
# FIGS. 6 and 7 show the results of each sample when Control is 100%.
# SOD = SOD amount against hydrogen peroxide (SOD Assay Kit); assay type: cell-based, human; conditions: added before and after 0.2 mM hydrogen peroxide, 1-300 μg/mL (H2O2 only 56% of Control)
# Description: Superoxide (SOD) was measured using SOD Assay Kit (Cayman Chemical, Ann arbor, MI, USA). Cells that had been subjected to various treatments were incubated for 24 hours, and then a Lysis buffer was added, homogenized, and centrifuged. Then, 10 μL of each sample was mixed with 200 μL of xanthine oxidase at room temperature. After 30 minutes, the absorbance at 450 nm was measured.
# as §7
# According to the procedure described in “Measurement of Cell Viability” above, normal human dermal fibroblasts were treated and cultured (co-culture), and cells or the culture solution was recovered. The concentrations of VB2 and VB3 used and the notation of the samples in FIGS. 6 and 7, which are graphs showing the results, are also similar to the above “Measurement of Cell Viability”. […]
# AQP-1 = AQP-1 mRNA level under oxidative stress (qRT-PCR); assay type: cell-based, human
# Description: as §7
# (§8) According to the procedure described in “Measurement of Cell Viability” above, normal human dermal fibroblasts were treated and cultured (co-culture), and cells or the culture solution was recovered. The notation of the sample in FIGS. 8 and 9, which are graphs showing the results, is also the same as in the “Measurement of Cell Viability” described above.
# (§9) The measurement of aquaporin was performed for AQP-1 and AQP-3 by a qRT-PCR method, and the measurement result was obtained by a ΔΔCt method. […] The qRT-PCR method is s specifically described in “qRT-PCR method” described later.
# as §5
# (§10) As a PCR device, Thermal Cycler Dice Real Time System II manufactured by Takara was used. As one reaction system, 10 μL of Luna Universal One-Step Reaction Mix (2×), 1 μL of Luna WarmStart RT Enzyme Mix (20×), 0.8 μL of Forward primer (10 μM), 0.8 μL of Reverse primer, and Total RNA as a template for the PCR were used, and the total amount was adjusted to 20 μL in Nuclease-free Water.
# as §6
# AQP-3 = AQP-3 mRNA level under oxidative stress (qRT-PCR); assay type: cell-based, human
# Description: as §7, §8, §9, §5, §10, §6
# hyaluronic acid = assay: Hyaluronic acid secreted into culture supernatant (ELISA); assay type: cell-based, human
# Description: as §7
# (§11) According to the procedure described in “Measurement of Cell Viability” above, normal human dermal fibroblasts were treated and cultured (co-culture), and cells or the culture solution was recovered. The concentrations of VB2 and VB3 used and the notation of the samples in FIGS. 10 and 11, which are graphs showing the results, are also similar to the above “Measurement of Cell Viability”.
# (§12) The production amounts of hyaluronic acid and Elastin were measured by an ELISA method. The results of measuring the amount of hyaluronic acid secreted from normal human dermal fibroblasts into the culture supernatant by the ELISA method are shown in FIG. 10, and the results of measuring the amount of intracellular Elastin production by the ELISA method are shown in FIG. 11.
# Elastin = assay: Intracellular Elastin production (ELISA); assay type: cell-based, human
# Description: as §7, §11, §12
# [6] = added before or after 0.2 mM hydrogen peroxide
# [7] = added in advance before oxidative stress, compared with addition after
# [8] = added in advance before applying oxidative stress
substance,measurement,setting,value
K11H[(VO)3(SbW9O33)2] [VB2],mRNA expression of AGE receptor,[1],did not affect
same,mRNA level of FEEL-1,FEEL-1,significantly increased
same,mRNA level of FEEL-2,FEEL-2,significantly increased
same,mRNA level of RAGE,RAGE,significantly increased
same,mRNA expression of Hsp,"[2]; VB alone, no AGE, compared with untreated group",did not affect
same,mRNA levels of all Hsps other Hsp 90 among the examined Hsps,"[2]; co-existence with AGE 100 μg/mL, compared with AGE single stimulation group",significantly increased
same,intracellular ROS under AGE stimulation,intracellular ROS [3],suppress the increase in ROS
same,maximum cell viability,"[4]; added after 0.2 mM hydrogen peroxide, 300 μg/mL, % of Control (H2O2 only 59%)",76%
same,"cell viability, trend",[4]; added after 0.2 mM hydrogen peroxide,increased in a concentration-dependent manner
same,"cell viability, trend",[4]; added in advance before 0.2 mM hydrogen peroxide,significant increase in a concentration-dependent manner
same,ROS production,"intracellular ROS [5]; added before and after 0.2 mM hydrogen peroxide, 1-300 μg/mL",suppressed in a concentration-dependent manner
same,ROS production,"intracellular ROS [5]; treatment in advance before oxidative stress, compared with addition after",further suppressed
same,SOD amount,SOD,tended to be recovered in a concentration-dependent manner
same,mRNA level of AQP-1,AQP-1; [6],increased
same,"AQP-1 mRNA repair ability, addition before vs after oxidative stress",AQP-1; [7],tended to have a stronger repair ability
same,mRNA level of AQP-3,AQP-3; [6],increased
same,"AQP-3 mRNA repair ability, addition before vs after oxidative stress",AQP-3; [7],tended to have a stronger repair ability
same,amount of hyaluronic acid,"hyaluronic acid; 0.2 mM hydrogen peroxide oxidative stress, culture supernatant",tended to be recovered
same,"hyaluronic acid repair ability, addition before vs after oxidative stress",hyaluronic acid; [7],tended to have a stronger repair ability
same,Elastin production amount,Elastin; added after application of oxidative stress (H2O2 only 56% of Control),could not be recovered
same,Elastin production amount,Elastin; [8],significant recovery
same,concentration at which Elastin production amount was significantly higher than Control,Elastin; [8],≥ 100 µg/mL
